Measurements as given in patent publication US20120202847A1, “Novel Tetrahydroisoquinoline Compounds” (priority 2009, published 2012).

Molecular target: T1, DGAT1 enzyme (Homo sapiens, UniProt O75907)
T1 construct: made in house
T1 sequence (O75907 1-488): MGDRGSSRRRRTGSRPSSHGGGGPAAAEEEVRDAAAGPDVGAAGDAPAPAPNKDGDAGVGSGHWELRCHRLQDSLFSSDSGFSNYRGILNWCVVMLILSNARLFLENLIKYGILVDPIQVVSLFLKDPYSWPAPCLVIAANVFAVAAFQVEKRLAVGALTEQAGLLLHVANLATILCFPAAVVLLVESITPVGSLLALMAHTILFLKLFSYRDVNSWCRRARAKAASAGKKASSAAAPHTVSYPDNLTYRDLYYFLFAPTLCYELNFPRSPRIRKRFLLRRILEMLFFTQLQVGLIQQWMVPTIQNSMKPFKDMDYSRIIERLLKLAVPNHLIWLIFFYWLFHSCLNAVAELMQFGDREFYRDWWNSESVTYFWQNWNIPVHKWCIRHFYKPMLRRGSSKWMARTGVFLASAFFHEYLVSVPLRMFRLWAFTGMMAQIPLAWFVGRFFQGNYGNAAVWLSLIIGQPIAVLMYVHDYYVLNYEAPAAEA
Assay: DGAT1 inhibitory activity test
Format: biochemical
Details: test compound concentration of 0.05 μg/ml; [14C]-oleoyl-CoA, 23° C., 30 minutes; read-out: Inhibitory Rate
Description: (1) Preparation of DGAT1 Enzyme
DGAT1 enzyme was prepared and stored according to the method described in US2007/0249620.
(2) DGAT1 Inhibitory Activity Test
A reaction solution having the following composition was incubated at room temperature (23° C.) for 30 minutes: 175 mM Tris-HCl (pH 8.0), 8 mM MgCl2, 1 mg/ml BSA, 0.3 mM 1,2-dioleoyl-sn-glycerol (10-fold concentration of EtOH solution, 10% added), 10 μM [^14C]-oleoyl-CoA (approximately 50 mCi/mmol), 0.5% Triton X-100, the DGAT1 enzyme (10 μg) obtained in Test Example 1(1), and a test compound or vehicle (DMSO/MeOH, 7:3 solution, 5% added), 50 μl in total. A reaction stop solution […] consisting of isopropanol/1-heptane/water (80:20:2, v/v/v) was added to the reaction solution and stirred. Subsequently, water […] and 1-heptane (100 μl) were added thereto and stirred. The 1-heptane layer […] was spotted onto a TLC plate and developed with a developing solvent consisting of 1-hexane/diethyl ether/acetic acid (85:15:1, v/v/v). The radioactivity of the triglyceride fraction was quantified using BAS2500 Bio Image Analyzer (FUJIFILM) and compared with the control. The inhibitory activity of the test compound was calculated according to the formula shown below. In this context, the radioactivity at no reaction (0 minute incubation) was used as background.
Inhibitory Rate=100−[(Radioactivity of sample supplemented with test compound)−(Background)]/[(Radioactivity of control)−(Background)]×100

inhibition at 0.05 µg/mL | SMILES
≥ 50% | O=C(O)C[C@H]1CC[C@H](OC(=O)N2CCc3cc(NC(=O)Nc4ccc(Cl)cc4C(F)(F)F)ccc3C2)CC1 [Example 28, trans-6-[3-(4-chloro-2-trifluoromethyl-phenyl)-ureido]-3,4-dihydro-1H-isoquinoline-2-carboxylic acid 4-carboxymethyl-cyclohexyl ester]
≥ 50% | O=C(O)C[C@H]1CC[C@H](OC(=O)N2CCc3cc(NC(=O)Nc4cccc(C(F)(F)F)c4F)ccc3C2)CC1 [Example 21, trans-6-[3-(2-fluoro-3-trifluoromethyl-phenyl)-ureido]-3,4-dihydro-1H-isoquinoline-2-carboxylic acid 4-carboxymethyl-cyclohexyl ester]
≥ 50% | Cc1cccc(NC(=O)Nc2ccc3c(c2)CCN(C(=O)O[C@H]2CC[C@H](CC(=O)O)CC2)C3)c1F [Example 6, trans-6-[3-(2-fluoro-3-methyl-phenyl)-ureido]-3,4-dihydro-1H-isoquinoline-2-carboxylic acid 4-carboxymethyl-cyclohexyl ester]
≥ 50% | Cc1ccc(NC(=O)Nc2ccc3c(c2)CCN(C(=O)O[C@H]2CC[C@H](CC(=O)O)CC2)C3)cc1F [Example 30, trans-6-[3-(3-fluoro-4-methyl-phenyl)-ureido]-3,4-dihydro-1H-isoquinoline-2-carboxylic acid 4-carboxymethyl-cyclohexyl ester]
≥ 50% | O=C(O)C[C@H]1CC[C@H](OC(=O)N2CCc3cc(NC(=O)Nc4cc(C(F)(F)F)ccc4F)ccc3C2)CC1 [Example 22, trans-6-[3-(2-fluoro-5-trifluoromethyl-phenyl)-ureido]-3,4-dihydro-1H-isoquinoline-2-carboxylic acid 4-carboxymethyl-cyclohexyl ester]
≥ 50% | O=C(O)C[C@H]1CC[C@H](OC(=O)N2CCc3cc(NC(=O)Nc4cccc(Cl)c4)ccc3C2)CC1 [Example 46, trans-6-[3-(3-chloro-phenyl)-ureido]-3,4-dihydro-1H-isoquinoline-2-carboxylic acid 4-carboxymethyl-cyclohexyl ester]
≥ 50% | O=C(O)C[C@H]1CC[C@H](OC(=O)N2CCc3cc(NC(=O)Nc4cccc(Cl)c4Cl)ccc3C2)CC1 [Example 37, trans-6-[3-(2,3-dichloro-phenyl)-ureido]-3,4-dihydro-1H-isoquinoline-2-carboxylic acid 4-carboxymethyl-cyclohexyl ester]
≥ 50% | O=C(O)C[C@H]1CC[C@H](OC(=O)N2CCc3cc(NC(=O)Nc4ccccc4C(F)(F)F)ccc3C2)CC1 [Example 17, trans-6-[3-(2-trifluoromethyl-phenyl)-ureido]-3,4-dihydro-1H-isoquinoline-2-carboxylic acid 4-carboxymethyl-cyclohexyl ester]
≥ 50% | COc1ccc(NC(=O)Nc2ccc3c(c2)CCN(C(=O)O[C@H]2CC[C@H](CC(=O)O)CC2)C3)cc1OC [Example 44, trans-6-[3-(3,4-dimethoxy-phenyl)-ureido]-3,4-dihydro-1H-isoquinoline-2-carboxylic acid 4-carboxymethyl-cyclohexyl ester]
≥ 50% | O=C(O)C[C@H]1CC[C@H](OC(=O)N2CCc3cc(NC(=O)Nc4ccc(F)cc4C(F)(F)F)ccc3C2)CC1 [Example 18, trans-6-[3-(4-fluoro-2-trifluoromethyl-phenyl)-ureido]-3,4-dihydro-1H-isoquinoline-2-carboxylic acid 4-carboxymethyl-cyclohexyl ester]
≥ 50% | O=C(O)C[C@H]1CC[C@H](OC(=O)N2CCc3cc(NC(=O)Nc4ccc(Cl)cc4F)ccc3C2)CC1 [Example 11, trans-6-[3-(4-chloro-2-fluoro-phenyl)-ureido]-3,4-dihydro-1H-isoquinoline-2-carboxylic acid 4-carboxymethyl-cyclohexyl ester]
≥ 50% | O=C(O)C[C@H]1CC[C@H](OC(=O)N2CCc3cc(NC(=O)Nc4cc(Cl)ccc4F)ccc3C2)CC1 [Example 12, trans-6-[3-(5-chloro-2-fluoro-phenyl)-ureido]-3,4-dihydro-1H-isoquinoline-2-carboxylic acid 4-carboxymethyl-cyclohexyl ester]
≥ 50% | Cc1cc(Cl)ccc1NC(=O)Nc1ccc2c(c1)CCN(C(=O)O[C@H]1CC[C@H](CC(=O)O)CC1)C2 [Example 26]
≥ 50% | Cc1cccc(NC(=O)Nc2ccc3c(c2)CCN(C(=O)O[C@H]2CC[C@H](CC(=O)O)CC2)C3)c1Cl [Example 27, trans-6-[3-(2-chloro-3-methyl-phenyl)-ureido]-3,4-dihydro-1H-isoquinoline-2-carboxylic acid 4-carboxymethyl-cyclohexyl ester]
≥ 50% | COc1cccc(NC(=O)Nc2ccc3c(c2)CCN(C(=O)O[C@H]2CC[C@H](CC(=O)O)CC2)C3)c1F [Example 42, trans-6-[3-(2-fluoro-3-methoxy-phenyl)-ureido]-3,4-dihydro-1H-isoquinoline-2-carboxylic acid 4-carboxymethyl-cyclohexyl ester]
≥ 50% | COc1ccc(NC(=O)Nc2ccc3c(c2)CCN(C(=O)O[C@H]2CC[C@H](CC(=O)O)CC2)C3)c(C)c1 [Example 19, trans-6-[3-(4-methoxy-2-methyl-phenyl)-ureido]-3,4-dihydro-1H-isoquinoline-2-carboxylic acid 4-carboxymethyl-cyclohexyl ester]
≥ 50% | O=C(O)C[C@H]1CC[C@H](OC(=O)N2CCc3cc(NC(=O)Nc4cccc(F)c4F)ccc3C2)CC1 [Example 3, trans-6-[3-(2,3-difluoro-phenyl)-ureido]-3,4-dihydro-1H-isoquinoline-2-carboxylic acid 4-carboxymethyl-cyclohexyl ester]
≥ 50% | O=C(O)C[C@H]1CC[C@H](OC(=O)N2CCc3cc(NC(=O)Nc4cccc(Cl)c4F)ccc3C2)CC1 [Example 10, trans-6-[3-(3-chloro-2-fluoro-phenyl)-ureido]-3,4-dihydro-1H-isoquinoline-2-carboxylic acid 4-carboxymethyl-cyclohexyl ester]
≥ 50% | O=C(O)C[C@H]1CC[C@H](OC(=O)N2CCc3cc(NC(=O)Nc4ccc(C(F)(F)F)cc4F)ccc3C2)CC1 [Example 16, trans-6-[3-(2-fluoro-4-trifluoromethyl-phenyl)-ureido]-3,4-dihydro-1H-isoquinoline-2-carboxylic acid 4-carboxymethyl-cyclohexyl ester]
≥ 50% | Cc1c(Cl)cccc1NC(=O)Nc1ccc2c(c1)CCN(C(=O)O[C@H]1CC[C@H](CC(=O)O)CC1)C2 [Example 36, trans-6-[3-(3-chloro-2-methyl-phenyl)-ureido]-3,4-dihydro-1H-isoquinoline-2-carboxylic acid 4-carboxymethyl-cyclohexyl ester]
≥ 50% | COc1ccc(NC(=O)Nc2ccc3c(c2)CCN(C(=O)O[C@H]2CC[C@H](CC(=O)O)CC2)C3)cc1F [Example 45, trans-6-[3-(3-fluoro-4-methoxy-phenyl)-ureido]-3,4-dihydro-1H-isoquinoline-2-carboxylic acid 4-carboxymethyl-cyclohexyl ester]
